# Experiments:
# [1] = Solubility in acetone and acetone/H2O mixtures, 30 minutes; settings: room temperature
# Procedure: The first measurement was conducted at room temperature over 30 minutes with mixing completed by spinning in centrifuge tubes.
# [2] = Solubility in acetone/H2O combinations, equilibrated 48 hours; format: physicochemical; settings: 48 hours at room temperature
# Description: The second measurement was completed to further evaluate acetone/H2O combinations in 1% H2O increments.
# [3] = Glass transition temperature (Tg) by mDSC; format: physicochemical; settings: neat compound, Example 1
# Procedure: MDSC was performed using a TA Instruments Q2000 differential scanning calorimeter equipped with a TA instruments Refrigerated Cooling System 90. MDSC was used to measure glass transition temperature (Tg) and melting temperature (Tm), if present. The temperature range was adjusted from 0-250° C. with a heating rate of 1.5° C./min. The scanning mode was modulated where the modulation frequency was 60 seconds and modulation amplitude 1° C.
# The effect of relative humidity on the Tg was examined for the solid dispersion. The solid dispersion was exposed to humidity levels of 33%, 50% or 75% for 24 hours. Following exposure, the samples were capped in hermetically sealed DSC pans for analysis. […] As shown, the Tg dropped to 71° C. and 51° C. when exposed to 33% and 75% RH, respectively. […] The solid dispersion was packaged in packaging that maintains RH values <33% for long-term storage.
# [4] = Non-sink gastric transfer dissolution test (SGF to FaSSIF); format: physicochemical
# Procedure: The dissolution performance of the solid dispersions was tested in a non-sink dissolution test. […] During the test, samples were transferred from SGF [theoretical Cmax=2000 μgA/mL] to FaSSIF [theoretical Cmax=1000 μgA/mL].
# [5] = Suspension stability monitored by SGF/FaSSIF dissolution test; format: physicochemical
# Procedure: The performance of each solid dispersion suspension was monitored at 4 and 24 hours after preparation using the SGF/FaSSIF dissolution test as the comparative metric.
# The suspension stability dissolution profiles for the solid dispersion formulations held for 4 hours or 24 hours can be found in Tables 8 and 9, respectively. The dissolution tests were dosed at 2.0 mgA/mL in SGF and upon transfer into FaSSIF were reduced to 1.0 mgA/mL. It is expected that the solid dispersion suspensions can be held for up to 4 hours prior to dosing.
# VEGF = VEGF ELISA Assay in 786-O cells; format: cell-based; settings: Homo sapiens, 786-0; VEGF concentration in 786-O cell culture medium
# Procedure: Each concentration was plated in duplicate. About 20 hours later, medium was removed by suction and each well was supplied with 180 μL of growth medium. About 20 μl freshly-made 10× compound stocks were added to each well. […] The EC50 was calculated by GraphPad Prism using the dose-response-inhibition (four parameter) equation. The cell-seeded plate was then subjected to CellTiter-Glo luminescence cell viability assay (Promega) by adding 50 μL of Celltiter Glo reagent into each well and shaking the plate for 8 minutes at 550 rpm (Thermomixer R, Eppendorf) then the luminescence signal immediately read in a plate reader (3 second delay, 0.5 second/well integration time, Synergy 2 multi Detection Microplate reader).
# 786-O-Hif-Luc cells = assay: Luciferase Assay; format: cell-based; settings: luciferase activity after about 24 hours
# Procedure: A pool of infected cells were then selected against 2 μg/mL of puromycin (P8833, Sigma) for 10 days followed by limited dilution to select single clones.
# Each concentration was tested in triplicate. After about 24 hours, luciferase activity was determined using ONE-Glo Luciferase Assay Reagent (E6110, Promega) following the manufacturer's recommended procedure.
# [6] = Solubility and sink factor in dissolution media at pH 2 and 6.8; settings: for Sink Factor (10 mg) / Sink Factor (40 mg): 900 mL media
# [7] = Example 6, lipid vehicle capsules
# [8] = pH 2.0 (0.01N HCl) w/0.5% Tween 80
# [9] = pH 2.0 (0.01N HCl) w/1% Tween 80
# [10] = pH 6.8 (50 mM NaH2PO4) w/0.5% CTAB
# [11] = pH 6.8 (50 mM NaH2PO4) w/0.5% SLS
# [12] = pH 6.8 (50 mM NaH2PO4) w/0.5% Tween 80
# [13] = pH 6.8 (50 mM NaH2PO4) w/1% CTAB
# [14] = pH 6.8 (50 mM NaH2PO4) w/1% SLS
# [15] = pH 6.8 (50 mM NaH2PO4) w/1% Tween 80
smiles,measurement,setting,value
"CS(=O)(=O)c1ccc(Oc2cc(F)cc(C#N)c2)c2c1[C@H](O)[C@H](F)[C@@H]2F [compound of Formula (I), 3-(((1S,2S,3R)-2,3-difluoro-1-hydroxy-7-(methylsulfonyl)-2,3-dihydro-1H-inden-4-yl)oxy)-5-fluorobenzonitrile]",solubility,[1]; 87.5/12.5% Acetone/H2O,5.8 wt. %
same,solubility,[1]; 90/10% Acetone/H2O,7.1 wt. %
same,solubility,[1]; 92.5/7.5% Acetone/H2O,6.7 wt. %
same,solubility,[1]; 95/5% Acetone/H2O,7.5 wt. %
same,solubility,[1]; 97.5/2.5% Acetone/H2O,7.3 wt. %
same,solubility,[1]; 100% Acetone,6.2 wt. %
same,solubility,[2]; 95/5% Acetone/H2O,6.6 wt. %
same,solubility,[2]; 96/4% Acetone/H2O,6.3 wt. %
same,solubility,[2]; 97/3% Acetone/H2O,6.7 wt. %
same,solubility,[2]; 98/2% Acetone/H2O,6.6 wt. %
same,solubility,[2]; 99/1% Acetone/H2O,6.0 wt. %
same,solubility,[2]; 100% Acetone,6.0 wt. %
same,glass transition temperature (Tg),[3],79.9 °C
same,AUC Enhancement,"[4]; Example 2, AUC solid dispersion/AUC crystalline compound of Formula (I)",1
same,Cmax GB,"[4]; Example 2, SGF, 30 minutes",12 μgA/mL
same,Cmax FaSSIF,"[4]; Example 2, after transfer to FaSSIF",16 μgA/mL
same,AUC FaSSIF,"[4]; Example 2, post gastric transfer",2600 μgA/mL*min
same,Cmax GB,"[4]; Example 6, capsules, 5 wt. % compound in lipid vehicle",14 μgA/mL
same,AUC FaSSIF,[4]; [7],3021 μgA/mL*min
same,Cmax FaSSIF,[4]; [7],19 μgA/mL
same,AUC Enhancement,"[4]; Example 6, versus bulk crystalline drug",1.0
same,Cmax GB,[5]; 10 mgA/mL suspension in 1 wt. % 1:1 methyl-cellulose:Tween 80 held 4 hours,18.3 μgA/mL
same,Cmax GB,[5]; 10 mgA/mL suspension in 1 wt. % 1:1 methyl-cellulose:Tween 80 held 24 hours,35.8 μgA/mL
same,AUC Enhancement,[5]; suspension held 4 hours,1.0
same,AUC FaSSIF,[5]; suspension held 4 hours,2600 μgA/mL*min
same,Cmax FaSSIF,[5]; suspension held 4 hours,15.5 μgA/mL
same,AUC Enhancement,[5]; suspension held 24 hours,1.0
same,AUC FaSSIF,[5]; suspension held 24 hours,5600 μgA/mL*min
same,Cmax FaSSIF,[5]; suspension held 24 hours,33.0 μgA/mL
same,EC50,VEGF,< 50 nM
same,EC50,786-O-Hif-Luc cells,< 50 nM
same,solubility,[6]; pH 2,100 µg/mL
same,Sink Factor (10 mg),[6]; pH 2.0 (0.01N HCl) w/0.5% CTAB,5.4
same,Sink Factor (40 mg),[6]; pH 2.0 (0.01N HCl) w/0.5% CTAB,1.4
same,Sink Factor (10 mg),[6]; pH 2.0 (0.01N HCl) w/0.5% SLS,3.6
same,Sink Factor (40 mg),[6]; pH 2.0 (0.01N HCl) w/0.5% SLS,0.9
same,Sink Factor (10 mg),[6]; [8],1.8
same,Sink Factor (40 mg),[6]; [8],0.5
same,Sink Factor (10 mg),[6]; pH 2.0 (0.01N HCl) w/1% CTAB,9
same,Sink Factor (40 mg),[6]; pH 2.0 (0.01N HCl) w/1% CTAB,2.3
same,Sink Factor (10 mg),[6]; pH 2.0 (0.01N HCl) w/1% SLS,6.3
same,Sink Factor (40 mg),[6]; pH 2.0 (0.01N HCl) w/1% SLS,1.6
same,Sink Factor (10 mg),[6]; [9],1.8
same,Sink Factor (40 mg),[6]; [9],0.5
same,Sink Factor (10 mg),[6]; pH 2.0 (0.01N HCl),0.9
same,Sink Factor (40 mg),[6]; pH 2.0 (0.01N HCl),0.2
same,solubility,"[6]; pH 2, aqueous with cosolvent or surfactant or cyclodextrin, thermodynamic from solid, Solubility",60 µg/mL
same,solubility,"[6]; pH 2, aqueous with cosolvent or surfactant or cyclodextrin, thermodynamic from solid, Solubility, pH 2.0 (0.01N HCl) w/0.5% SLS",40 µg/mL
same,solubility,"[6]; pH 2, aqueous with cosolvent or surfactant or cyclodextrin, thermodynamic from solid, Solubility, pH 2.0 (0.01N HCl) w/0.5% Tween 80",20 µg/mL
same,solubility,"[6]; pH 2, aqueous with cosolvent or surfactant or cyclodextrin, thermodynamic from solid, Solubility, pH 2.0 (0.01N HCl) w/1% SLS",70 µg/mL
same,solubility,"[6]; pH 2, aqueous with cosolvent or surfactant or cyclodextrin, thermodynamic from solid, Solubility, pH 2.0 (0.01N HCl) w/1% Tween 80",20 µg/mL
same,solubility,"[6]; pH 2, simulated gastric fluid, thermodynamic from solid, Solubility, pH 2.0 (0.01N HCl)",10 µg/mL
same,Sink Factor (10 mg),[6]; [10],6.3
same,Sink Factor (40 mg),[6]; [10],1.6
same,Sink Factor (10 mg),[6]; [11],3.6
same,Sink Factor (40 mg),[6]; [11],0.9
same,Sink Factor (10 mg),[6]; [12],1.8
same,Sink Factor (40 mg),[6]; [12],0.5
same,Sink Factor (10 mg),[6]; [13],9.9
same,Sink Factor (40 mg),[6]; [13],2.5
same,Sink Factor (10 mg),[6]; [14],6.3
same,Sink Factor (40 mg),[6]; [14],1.6
same,Sink Factor (10 mg),[6]; [15],1.8
same,Sink Factor (40 mg),[6]; [15],0.5
same,Sink Factor (10 mg),[6]; pH 6.8 (50 mM NaH2PO4),0.9
same,Sink Factor (40 mg),[6]; pH 6.8 (50 mM NaH2PO4),0.2
same,solubility,"[6]; pH 6.8, aqueous buffer, thermodynamic from solid, Solubility, pH 6.8 (50 mM NaH2PO4)",10 µg/mL
same,solubility,"[6]; pH 6.8, aqueous with cosolvent or surfactant or cyclodextrin, thermodynamic from solid, Solubility, pH 6.8 (50 mM NaH2PO4) w/0.5% CTAB",70 µg/mL
same,solubility,"[6]; pH 6.8, aqueous with cosolvent or surfactant or cyclodextrin, thermodynamic from solid, Solubility, pH 6.8 (50 mM NaH2PO4) w/0.5% SLS",40 µg/mL
same,solubility,"[6]; pH 6.8, aqueous with cosolvent or surfactant or cyclodextrin, thermodynamic from solid, Solubility, pH 6.8 (50 mM NaH2PO4) w/0.5% Tween 80",20 µg/mL
same,solubility,"[6]; pH 6.8, aqueous with cosolvent or surfactant or cyclodextrin, thermodynamic from solid, Solubility, pH 6.8 (50 mM NaH2PO4) w/1% CTAB",110 µg/mL
same,solubility,"[6]; pH 6.8, aqueous with cosolvent or surfactant or cyclodextrin, thermodynamic from solid, Solubility, pH 6.8 (50 mM NaH2PO4) w/1% SLS",70 µg/mL
same,solubility,"[6]; pH 6.8, aqueous with cosolvent or surfactant or cyclodextrin, thermodynamic from solid, Solubility, pH 6.8 (50 mM NaH2PO4) w/1% Tween 80",20 µg/mL

# Source: patent publication US12358870B2, “Solid dispersions and pharmaceutical compositions comprising a substituted indane and methods for the preparation and use thereof” (Peloton Therapeutics Inc., priority 2018, dated 2025)
